# Like-named read-outs stand apart in the source and are kept apart here.
# What was measured:
# [1] = system: preterm rabbits exposed to hyperoxia; test: pulmonary efficacy, daily intraperitoneal 10 mg/kg, preterm rabbits exposed to hyperoxia; assay type: in vivo, rabbit; details: daily i.p. 10 mg/kg
# Experimental: At Day 7, invasive lung function testing was performed using the forced oscillation technique with the flexiVent^TM apparatus (SCIREQ, Montréal, Canada). Pups were anesthetized with intramuscular ketamine (35 mg/kg) and xylazine (6 mg/kg) before a tracheostomy was performed, and an 18-gauge metal needle was inserted in the trachea and tied. Pups were connected to the volume-controlled mechanical ventilation of the flexiVent^TM (SCIREQ, tidal volume 10 mL/kg, frequency of 120 breaths/min, PEEP of 3 cmH2O). All pups were euthanized with a pentothal sodium overdose.
# The following parameters were measured: total inspiratory capacity, resistance of the respiratory system (Rrs), lung tissue damping (G), lung tissue elastance (H), and static compliance (Cst). Three consistent measurements were obtained, with a coefficient of determination >0.95 as the limit to accept the measurement. The average of three measurements was calculated and used in the analysis.
# At necropsy, lungs were removed en bloc and a 20-gauge catheter was secured inside the trachea. Lungs were fixed with 10% buffered formalin (Sigma-Aldrich) for at least 4 h under constant pressure (25 cmH2O) using a custom-made fixation device to ensure homogenous fixation pressures. After removal from pressure fixation, the lungs were first left in formalin for at least 24 h and then transferred to 70% ethanol.
# (§1) The left lung and the right lungs were embedded in paraffin, cut, and stained with hematoxylin and eosin (H&E) following standard histology protocols. The radial alveolar count (RAC) was performed by an expert pathologist blinded to the experimental design by drawing a perpendicular line from the lumen of the terminal bronchiole to the nearest connective tissue septum or pleural margin and the number of saccules or alveoli crossed by this line was counted as previously described. In total, 20 measurements were performed for each lung pair.
# An independent experimental session investigated the efficacy of RGZ at a higher dose (10 mg/kg). In total, 36 preterm rabbits with a GA of 28 days delivered from 4 does were randomized to either the control group (n = 18) or the RGZ 10 mg/kg group (n = 18 per group). Hyperoxia exposure, RGZ administration, animal care and feeding procedures, lung function testing, RAC, and sample collection were performed as described above.
# [2] = system: neonatal rats exposed to hyperoxia; set-up: method as in PMID 19304912; details: hyperoxia (95% O2), 1 or 3 mg/kg for 7 days; cited from earlier work
# PPARγ = test: target engagement (TE%) evaluation from unbound plasma concentration and EC50
# Experimental: In a subsequent experimental session, we investigated the pulmonary outcomes of a higher intraperitoneal RGZ dose. To define the RGZ dose, a target engagement (TE%) evaluation was performed based on the unbound plasma and EC50 values for RGZ previously determined in vitro. […] TE% at each time point was calculated according to the following formula.
# [3] = system: preterm rabbits exposed to hyperoxia; test: pulmonary efficacy, daily intraperitoneal 1 mg/kg, preterm rabbits exposed to hyperoxia; assay type: in vivo, rabbit; details: daily i.p. 1 mg/kg
# Experimental: A total of 31 preterm rabbits with a GA of 28 days delivered from 4 does were included in the efficacy study. After delivery, newborn pups were put in hyperoxia (95% oxygen) for 1 h. Surviving pups were exposed to hyperoxia (95% O2) for 7 days and randomized to receiving daily (from postnatal day (PND) 0 to PND 6) intraperitoneal injections of RGZ at 1 mg/kg (n = 15) or the vehicle (n = 16).
# Pups were placed on a sterilized soft bedding and remained in the incubator except for the feeding and treatments. Pups were fed 4 h after delivery on PND 0 with a milk replacer (Day One®, Protein 30%, Fat 50%; FoxValley, Aurora, IL, USA). Probiotics, electrolytes, and vitamins are added during the first 7 days (Bio-Lapis®; Probiotics International Ltd., Somerser, UK) and immunoglobulins during the first 2 days (Col-o-Cat®, SanoBest, Hertogenbosch, Netherlands). The standard feeding protocol consisted of incrementally increasing the amounts of milk replacer (PND 0: 40 mg/kg, PND 1: 50 mg/kg/day, PND 2: 75 mg/kg, PND 3–6: 100 mg/kg/day). On Day 2, vitamin K1 was administered intramuscularly (0.002 mg/kg BW, Konakion pediatrique®; Roche, Basel, Switzerland).
# At Day 7, invasive lung function testing was performed using the forced oscillation technique with the flexiVent^TM apparatus (SCIREQ, Montréal, Canada). […]
# The following parameters were measured: total inspiratory capacity, resistance of the respiratory system (Rrs), lung tissue damping (G), lung tissue elastance (H), and static compliance (Cst). […] The average of three measurements was calculated and used in the analysis. […]
# as §1, with “In total, 20 measurements were performed for each lung pair.” left out
# [4] = plasma protein binding by equilibrium dialysis; assay type: in vitro ADME; set-up: fraction unbound at 4 h: dose or concentration left out as unconfirmed; details: both sexes, New Zealand White, preterm rabbit plasma (pooled), 37 °C
# Experimental: In vitro plasma protein binding was determined in preterm rabbit plasma (New Zealand White Pooled Gender, BIOIVT, Hicksville, NY, USA) by equilibrium dialysis using Thermo Fisher Scientific Pierce RED rapid equilibrium dialysis devices (Device Inserts 8K MWCO, Thermo Fisher Scientific, Waltham, MA, USA). The assay was performed using a Tecan Evoware robotic system (Männedorf, Switzerland). Test compounds and the positive control were diluted in the pooled plasma (three donors) to a final concentration of […] and then dispensed into the red chamber of the RED device inserts. Phosphate-Buffered Saline (PBS, from Merck KGaA, Darmstadt, Germany) was dispensed into the other side. Upon completion of 4 h of incubation (37 °C under shaking), equal aliquots were removed from each chamber and matrix matched with even volumes of plasma or buffer for LC-MS/MS analyses.
# Free and Bound percentages of the compounds were calculated as follows:(1) %Free=Area buffer sample/Area plasma sample×100 (2) % Bound=100−%Free
# [5] = set-up: method as in PMID 16617452; details: newborn rats; cited from earlier work
structure (smiles),measurement,setting,value
"CN(CCOc1ccc(CC2SC(=O)NC2=O)cc1)c1ccccn1 (centres unmarked) [RGZ, rosiglitazone]",plasma appearance,[1],"white, dense appearance"
same,RAC,"[1]; PND 7, vs vehicle",no difference between groups
same,inspiratory capacity,"[1]; PND 7, vs vehicle, p < 0.01",significantly lower
same,lung compliance (Cst),"[1]; PND 7, vs vehicle, p < 0.01",significantly lower
same,mortality,[1]; vs vehicle,similar
same,RAC and alveolar septal thickness,[2],significantly improved
same,target engagement (TE%),PPARγ,40–60%
same,target engagement (TE%),PPARγ; linear scaling model to intraperitoneal 10 mg/kg,> 90%
same,target engagement (TE%),PPARγ; listed as rosiglitazone,50%
same,weight gain,[3]; PND 7,43.46 ± 4.84 g
same,alveolarization (RAC),"[3]; PND 7, vs vehicle",neither improved
same,"lung function (inspiratory capacity, G, H and Cst)","[3]; PND 7, vs vehicle",neither improved
same,fraction unbound at 4 h,[4],0.025
same,plasma levels reported to protect the lungs from hyperoxia,[5],0.35 µg/mL

# From article PMC9320886, “Daily Intraperitoneal Administration of Rosiglitazone Does Not Improve Lung Function or Alveolarization in Preterm Rabbits Exposed to Hyperoxia” (Pharmaceutics, 2022)
